The record followed here is ChEMBL document CHEMBL4840323, “Discovery of an Orally Bioavailable Small-Molecule Inhibitor for the β-Catenin/B-Cell Lymphoma 9 Protein-Protein Interaction” (J Med Chem, 2021).

Data set [1] can be described thus: Intrinsic clearance in human liver microsomes at 1 uM measured up to 60 mins in presence of NADPH by LC-MS/SM analysis. Type of data set: ADME, Microsome.
Data set [2] relates to MDA-MB-231. The experiment in a line: Induction of apoptosis in human MDA-MB-231 cells assessed as late apoptotic cells at 20 uM measured after 72 hrs by annexinV-FITC/propidium iodide staining based flow cytometry (reference value: 8.8 %). In kind it is functional.
The species named for data set [3] is Mus musculus. The note with it: dose 90.0 mg/kg, time 5.0 day.
Data set [4] has as its system MDA-MB-231. The experiment in a line: Antiinvasive activity against human MDA-MB-231 cells cultured as 3D-spheroids at 40 uM measured after 6 days by imaging analysis relative to control. Type of data set: functional. The conditions noted are these: time 6 day.
The test system of data set [5] is MDA-MB-468. In words: Inhibition of Wnt/beta-catenin transactivation signalling in Wnt3a stimulated human MDA-MB-468 cells assessed as relative activity at 6.25 uM measured after 24 hrs by TOPFlash reporter gene assay relative to control. Further details: scale not given: the % may be the effect or the level left. In kind it is cell-based.
A short description of data set [6]: Oral bioavailability in C57BL/6 mouse at 20 mg/kg measured up to 24 hrs by LC-MS/MS analysis. The conditions noted are these: in vivo. In kind it is ADME, organism-based.
Data set [7] relates to MCF-10A. The experiment in a line: Induction of apoptosis in human MCF-10A cells assessed as late apoptotic cells at 20 uM measured after 72 hrs by annexinV-FITC/propidium iodide staining based flow cytometry (reference value: 13.9 %). Type of data set: cell-based.
Data set [8] has as its system MDA-MB-468. In words: Antiproliferative activity against human MDA-MB-468 cells harboring empty pcDNA3.1 vector at 10 uM measured after 72 hrs by MTS assay. In kind it is functional, cell-based.
In data set [9] the test system is SW480. The experiment in a line: Downregulation of HPRT mRNA expression in human SW480 cells at 10 to 40 uM measured after 24 hrs by qRT-PCR analysis. In kind it is functional, cell-based. The note with it: dose 10-40 µM.
Data set [10] concerns MDA-MB-231. In words: Downregulation of HPRT mRNA expression in Wnt3a stimulated human MDA-MB-231 cells at 10 to 40 uM measured after 24 hrs by qRT-PCR analysis. The conditions noted are these: dose 10-40 µM.
Data set [11] relates to 4013. The experiment in a line: Antitumor activity against patient-derived 4013 cells orthotopically xenografted in SCID-Beige mouse assessed as reduction in tumor weight at 90 mg/kg, po via gavage for 5 days. In kind it is functional, organism-based. The note with it: Homo sapiens, time 5.0 day.
Data set [12] has as its system MDA-MB-231. The experiment in a line: Antiinvasive activity against human MDA-MB-231 cells cultured as 3D-spheroids at 5 uM measured after 6 days by imaging analysis relative to control. The conditions noted are these: time 6 day. Type of data set: functional.
For data set [13], the system named is MDA-MB-231. In words: Induction of apoptosis in human MDA-MB-231 cells assessed as early apoptotic cells at 10 uM measured after 72 hrs by annexinV-FITC/propidium iodide staining based flow cytometry (reference value: 5.3 %). Type of data set: functional.
Data set [14] in a line: Solubility of the compound in EtOH/saline (5/95) at 2 mg/ml. In kind it is physicochemical. The note with it: buffer.
Data set [15] relates to MDA-MB-468. The experiment in a line: cells. The note with it: Homo sapiens, MDA-MB-468, 72 h.
Description: Antiproliferative activity against human MDA-MB-468 cells assessed as cell growth inhibition measured after 72 hrs by MTS assay
A short description of data set [16]: Cmax in C57BL/6 mouse at 1 mg/kg, iv measured after 5 mins by LC-MS/MS analysis. In kind it is ADME, organism-based. Further details: route intravenous, dose 1 mg/kg, time 5 min. The conditions noted are these: in vivo.
Data set [17] is described as follows: Aqueous solubility of the compound. In kind it is physicochemical. The note with it: buffer.
Data set [18] relates to MDA-MB-468. The experiment in a line: Induction of apoptosis in human MDA-MB-468 cells assessed as late apoptotic cells at 20 uM measured after 72 hrs by annexinV-FITC/propidium iodide staining based flow cytometry (reference value: 13.9 %). Type of data set: functional.
The test system of data set [19] is MDA-MB-231. In words: Induction of apoptosis in human MDA-MB-231 cells assessed as late apoptotic cells at 40 uM measured after 72 hrs by annexinV-FITC/propidium iodide staining based flow cytometry (reference value: 8.8 %). Type of data set: functional.
Data set [20] relates to MDA-MB-468. The experiment in a line: Antiproliferative activity against human MDA-MB-468 cells harboring beta-catenin pcDNA3.1 vector at 20 uM measured after 72 hrs by MTS assay. Type of data set: functional, cell-based.
The test system of data set [21] is HCT-116. The experiment in a line: cells. The note with it: Homo sapiens, HCT-116, 72 h.
Description: Antiproliferative activity against human HCT-116 cells assessed as cell growth inhibition measured after 72 hrs by MTS assay

pIC50: −log10 of the molar value. The source made the active and inactive calls. No cut-off for these calls is given here.

Take `CC(C)(Oc1cccc(N2CCC[C@@H](C(=O)N(Cc3ccc(-c4cn[nH]c4)cc3)C3CC3)C2)c1)C(=O)N1CCNCC1.Cl`: in data set [1], the CLint at 1 h, 1 µM worked out at 18 µL/min/mg. Also, the Activity was 23% in data set [2]; 10.9% in data set [4]; 102% in data set [5]; 17.3% in data set [7]; 76.3% in data set [12]; 5.4% in data set [13]. The Activity in [18] is reported as 24.6%; in [19], 18.9%. In addition, in data set [3], the inhibition entry is “Active”. In data set [6], this molecule yielded an F of 83%. Further, the outcome in [8] was Active. Moreover, the outcome in [9], in [10], in data set [11] and in [20] was inactive. Besides, the solubility entry in data set [14] was “Soluble”; in data set [17], greater than 3000 µM. Further, the pIC50 in data set [15] was 5.02; in [21], 4.12. Moreover, in data set [16], the Cmax came out at 790 nM.
